The values that follow come from PMC6151599, “Intestinal Absorption of Triterpenoids and Flavonoids from Glycyrrhizae radix et rhizoma in the Human Caco-2 Monolayer Cell Model” (Molecules : A Journal of Synthetic Chemistry and Natural …, 2017).

In general, Papp A→B refers to the apparent permeability from the apical to the basolateral side of a cell layer. Read a high Papp A→B as fast passage. The term Papp B→A denotes the apparent permeability from the basolateral to the apical side of a cell layer. Usually Papp stands for the rate of passage across a membrane or cell layer, normalised by area and donor concentration.

A short description of series [1]: Bidirectional transport (Papp) across Caco-2 cell monolayer. It counts as in vitro ADME. To be noted: human, ratio of previously reported Papp values (refs 35, 36), read-out: Efflux Ratio (Papp BL→AP to Papp AP→BL). On the technique in general: Caco-2 monolayers are a common model of the intestinal barrier.
The subject of series [2] is Caco-2 cell monolayer. To be noted: cited from earlier work; for Absorption designation: from previously reported Caco-2 Papp.
Series [3] is described as follows: Bidirectional transport (Papp) across Caco-2 cell monolayer. In kind it is in vitro ADME, human. To be noted: human; for efflux ratio at 90 min, 50 µM: Caco-2, Caco-2 monolayer, read-out: Efflux Ratio (Papp BL→AP to Papp AP→BL); for Papp A→B at 90 min, 50 µM / Papp B→A at 90 min, 50 µM / Papp at 90 min, 50 µM: Caco-2 monolayer; for Papp A→B at 90 min, 50 µM / Papp B→A at 90 min, 50 µM: incubation up to 90 min, n = 3; for Papp at 90 min, 50 µM: both directions. On the procedure:
(§1) The Caco-2 cell monolayer permeability was carried out according to the previously reported method. Briefly, the Caco-2 cells were maintained in DMEM containing 10% FBS, 1% NEAA, 100 units/mL of penicillin, and 100 µg/mL of streptomycin, in a constant humidity atmosphere of 5% CO2 and 95% air at 37 °C. For confluence and differentiation, cells were seeded at a density of 1 × 10^5 cells/cm^2 into 12-well Transwell plates (insert diameter 12 mm, pore size 3.0 μm, membrane growth area 1.12 cm^2, Costar® #3402) and were allowed to grow for 21 days before the permeation experiment. On day 21, the monolayers with TEER values > 500 Ω·cm^2 were qualified for the transport experiment. The transport study was initiated by the careful removal of the culture medium from AP and BL sides of the inserts. Caco-2 monolayers were rinsed twice with pre-warmed HBSS and were incubated by pre-warmed HBSS for 30 min at 37 °C. […] The assayed solutions (50 µM) were added to the AP side (0.5 mL, for absorption transport) or BL side (1.5 mL, for efflux transport) of the inserts, while the receiving chamber contained the corresponding volume of HBSS. Incubation was performed at 37 °C for 90 min, with shaking at 50 rpm. Samples were collected from the inserts and lyophilized. The dried sample was then sonicated with the appropriate volume of MeOH, followed by centrifugation at 15,000× g for 10 min. The supernatant was filtered through a 0.45 μm filter and injected into HPLC system for quantitative analysis.
(§2) The AP to BL or BL to AP permeability coefficient (Papp) value of each compound was calculated based on the following equation:Papp = (dQ/dt) × (1/A) × (1/C0) (cm/s)(1) where dQ/dt is the rate of the appearance of the test compound on the receiver compartment (μmol/s), C0 is the initial test compound concentration on the donor compartment (μmol/mL), and A is the surface area of Caco-2 monolayer (cm^2).
(§3) While shaking the samples (37 °C, 50 rpm), 1.3 mL aliquots were taken from BL side or 0.45 mL aliquots were taken from AP side at 30 min intervals from […].
(§4) After shaking the samples (37 °C, 50 rpm) in a shaking water bath for 90 min, aliquots were collected as described above.

Series [4] is described as follows: Intracellular accumulation and total recovery (mass balance) at the end of transport. It counts as in vitro ADME, human. As to conditions: human, Caco-2, end of transport, n = 3. On the procedure: (§5) To measure the amount of intracellular accumulation, the Caco-2 cells were rinsed three times with ice-cold HBSS at the end of transport experiments. After three freeze (−20 °C)-thaw (room temperature) cycles, the lysed Caco-2 cells were lyophilized. The dried cells were sonicated in 0.2 mL of 70% aqueous MeOH for 20 min and then centrifuged at 15,000× g for 10 min. The supernatant was filtered through a 0.45 μm filter and a 10 μL aliquot was injected into the HPLC system for analysis. To check the mass balance, the recoveries of the assayed compounds were measured at both sides of the insert and intracellular accumulation of the Caco-2 cells.

The test system of series [5] is Caco-2 cell monolayer. Put plainly: Bidirectional transport (Papp) across Caco-2 cell monolayer. In kind it is in vitro ADME, human. To be noted: for Time course of bilateral permeation: 0–180 min at 50 μM; for Transport mechanism / Efflux Ratio (Papp BL→AP to Papp AP→BL): Caco-2 monolayer; for Efflux Ratio (Papp BL→AP to Papp AP→BL): 90 min; for Concentration dependence of rate of membrane permeation: at 90 min within test range of concentration; for Absorption designation: from Caco-2 Papp compared with propranolol and atenolol. The procedure: as §1, §2, §3, §4

Series [6] has as its system Caco-2 cell monolayer. The series is described as follows: Intracellular accumulation and total recovery (mass balance) at the end of transport. It counts as in vitro ADME, human. The procedure:
as §5

[7] abbreviates: end of transport, n = 3, –: not detected.

“Also recorded” adds a separate entry of the source. Where two headings read alike, the source gives them in different places. Bounds are passed on as bounds.

`O=C1C[C@@H](c2ccc(O[C@@H]3O[C@H](CO)[C@@H](O)[C@H](O)[C@H]3O)cc2)Oc2cc(O)ccc21` [Compound 13, liquiritin]: the efflux ratio in series [1] came out at 0.98. Besides, in series [2] (Caco-2 monolayer), the “Papp AP→BL” value is given as 0.54 ± 0.02 ×10^−6 cm/s, the “Papp BL→AP” value is listed as 0.53 ± 0.03 ×10^−6 cm/s, the “Papp from BL to AP direction” value was “(5.32 ± 0.31) × 10^−7 cm/s” and the “Papp values (bidirectional)” value was around 1e-07 cm/s. Further, in series [2], the Absorption designation entry is recorded as “poorly absorbed”.

`COc1cc(O)ccc1/C=C/C(=O)c1ccc(O)cc1` [Compound 7, echinatin]: in series [3], the efflux ratio at 90 min, 50 µM worked out at 1.15; the Papp A→B at 90 min, 50 µM was 20.7 ± 1 ×10⁻⁶ cm/s; the Papp B→A at 90 min, 50 µM is 23.8 ± 0.3 ×10⁻⁶ cm/s. For the same molecule, in series [4] (read-out: Total recovery AP→BL), the recovery was determined as 96.9 ± 2.67%. The recovery in series [4] (read-out: Total recovery BL→AP) worked out at 97.7 ± 3.29%.

Regarding `CC1(C)[C@@H](O)CC[C@]2(C)[C@H]3C(=O)C=C4[C@@H]5C[C@@](C)(C(=O)O)CC[C@]5(C)CC[C@@]4(C)[C@]3(C)CC[C@@H]12` [Compound 3, glycyrrhetinic acid], in series [5], the “Time course of bilateral permeation” value is “increased approximately linearly”, the Transport mechanism entry was “passive diffusion”, the “Efflux Ratio (Papp BL→AP to Papp AP→BL)” value is given as 1.11 and the “Concentration dependence of rate of membrane permeation” value (“Concentration dependence” for short) is on record as “increased approximately linearly”. In series [3], the efflux ratio at 90 min, 50 µM fell in the range of 1.06 to 1.11; the Papp A→B at 90 min, 50 µM was 12.6 ± 0.4 ×10⁻⁶ cm/s; the Papp B→A at 90 min, 50 µM amounted to 14 ± 1.3 ×10⁻⁶ cm/s; the Papp at 90 min, 50 µM is above 10 ×10⁻⁶ cm/s. In series [6] (setting [7]), the “CA (cell accumulation) AP→BL” value was 0.25 ± 0.01%. In addition, the recovery in series [4] (read-out: Total recovery AP→BL) is 85.1 ± 2.33%. The recovery in series [4] (read-out: Total recovery BL→AP) was found to be 98.24 ± 0.59%.

Take `COc1c(/C=C/C(=O)c2ccc(O)cc2)ccc(O)c1CC=C(C)C` [Compound 6, licochalcone C]: in series [3], the efflux ratio at 90 min, 50 µM was determined as 1.17; the apparent permeability from apical to basolateral (Papp A→B) at 90 min, 50 µM was 22.5 ± 1 ×10⁻⁶ cm/s; the Papp B→A at 90 min, 50 µM was 26.4 ± 1.3 ×10⁻⁶ cm/s. For the same molecule, the recovery in series [4] (read-out: Total recovery AP→BL) is 97.5 ± 1.26%. Also, the recovery in series [4] (read-out: Total recovery BL→AP) is 96.1 ± 4.55%.

`O=C1C[C@@H](c2ccc(O)cc2)Oc2cc(O)ccc21` [Compound 9, liquiritigenin]: in series [5], the “Time course of bilateral permeation” value is reported as “increased approximately linearly” and the “Concentration dependence” value is reported as “increased approximately linearly”. For the same molecule, in series [3], the efflux ratio at 90 min, 50 µM was 0.88; the apparent permeability from apical to basolateral (Papp A→B) at 90 min, 50 µM was determined as 17.8 ± 0.6 ×10⁻⁶ cm/s; the Papp B→A at 90 min, 50 µM was 15.7 ± 0.3 ×10⁻⁶ cm/s; the Papp at 90 min, 50 µM is around 10 ×10⁻⁶ cm/s. In series [4] (read-out: Total recovery AP→BL), the recovery stood at 87 ± 2.78%. Moreover, the recovery in series [4] (read-out: Total recovery BL→AP) was 94.8 ± 4.29%.

As to `O=C(/C=C/c1ccc(O)cc1)c1ccc(O)cc1O` [Compound 11, isoliquiritigenin], the “Papp BL→AP” value in series [2] (Caco-2 monolayer) was 9.35 ± 0.43 ×10^−6 cm/s.

On to `O=C(/C=C/c1ccc(O[C@@H]2O[C@H](CO)[C@@H](O)[C@H](O)[C@H]2O)cc1)c1ccc(O)cc1O` [Compound 12, isoliquiritin], for which the efflux ratio in series [1] was 0.89. For the same molecule, in series [2] (Caco-2 monolayer), the “Papp AP→BL” value is reported as 0.87 ± 0.02 ×10^−6 cm/s, the “Papp BL→AP” value is given as 0.77 ± 0.07 ×10^−6 cm/s, the “Papp from AP to BL direction” value is “(8.69 ± 0.15) × 10^−7 cm/s” and the “Papp from BL to AP direction” value is given as “(7.68 ± 0.66) × 10^−7 cm/s”. Also, in series [2] (Caco-2 monolayer), the “Papp values (bidirectional)” value was at most 1e-07 cm/s. Further, the Absorption designation entry in series [2] was “poorly absorbed”.

For the molecule `COc1c(/C=C/C(=O)c2ccc(O)cc2)ccc(O)c1O` [Compound 5, licochalcone B], in series [3], the efflux ratio at 90 min, 50 µM turned out to be 1.22; the Papp A→B at 90 min, 50 µM is 24.7 ± 2.8 ×10⁻⁶ cm/s; the Papp B→A at 90 min, 50 µM worked out at 30.2 ± 2.4 ×10⁻⁶ cm/s. In addition, the recovery in series [4] (read-out: Total recovery AP→BL) stood at 96.2 ± 0.19%. Besides, the recovery in series [4] (read-out: Total recovery BL→AP) stood at 94.5 ± 2.89%.

Consider `CC1(C)[C@@H](O[C@H]2O[C@H](C(=O)O)[C@@H](O)[C@H](O)[C@H]2O[C@@H]2O[C@H](C(=O)O)[C@@H](O)[C@H](O)[C@H]2O)CC[C@]2(C)[C@H]3C(=O)C=C4[C@@H]5C[C@@](C)(C(=O)O)CC[C@]5(C)CC[C@@]4(C)[C@]3(C)CC[C@@H]12` [Compound 1, glycyrrhizin], for which, in series [5] (after incubation for 90 min, AP→BL and BL→AP), the “Detection of compound in the receiving side” value is “not detected; also recorded: below the lower limit of detection”. Also, the Absorption designation result in series [5] is given as “very poorly absorbed; also recorded: poorly absorbed”. The Papp at 90 min, 50 µM in series [3] is below 0.1 ×10⁻⁶ cm/s.

As to `C=CC(C)(C)c1cc(/C=C/C(=O)c2ccc(O)cc2)c(OC)cc1O` [Compound 4, licochalcone A], in series [5], the Absorption designation result is “moderately absorbed”. Also, in series [3], the efflux ratio at 90 min, 50 µM was 1.06; the Papp A→B at 90 min, 50 µM was 1.68 ± 0.13 ×10⁻⁶ cm/s; the Papp B→A at 90 min, 50 µM was found to be 1.78 ± 0.03 ×10⁻⁶ cm/s. Moreover, the “Cell accumulation / intracellular uptake (in words)” value in series [6] (all bidirectional transport) is listed as “higher intracellular uptake; also recorded: higher accumulation”. The “Total recovery AP→BL” value in series [6] (end of transport, n = 3) is given as “relatively lower”. For the same molecule, in series [6] (setting [7]), the “CA (cell accumulation) AP→BL” value was 50.52 ± 1.88% and the “CA (cell accumulation) BL→AP” value was determined as 42.56 ± 2.36%. Moreover, in series [4] (read-out: Total recovery AP→BL), the recovery turned out to be 81.88 ± 0.67%. Also, the recovery in series [4] (read-out: Total recovery BL→AP) turned out to be 90.4 ± 2.74%.

On to `CC1(C)[C@@H](O[C@@H]2O[C@H](C(=O)O)[C@@H](O)[C@H](O)[C@H]2O)CC[C@]2(C)[C@H]3C(=O)C=C4[C@@H]5C[C@@](C)(C(=O)O)CC[C@]5(C)CC[C@@]4(C)[C@]3(C)CC[C@@H]12` [Compound 2, glycyrrhetic acid-3-O-mono-β-D-glucuronide], for which, in series [5], the “Time course of bilateral permeation” value is recorded as “increased approximately linearly”, the Transport mechanism entry is reported as “passive diffusion”, the “Efflux Ratio (Papp BL→AP to Papp AP→BL)” value was found to be 1.06 and the “Concentration dependence” value is “increased approximately linearly”. Further, the Absorption designation result in series [5] is “moderately absorbed”. In addition, in series [3], the efflux ratio at 90 min, 50 µM was in the range of 1.06 to 1.11; the Papp A→B at 90 min, 50 µM came to 1.55 ± 0.09 ×10⁻⁶ cm/s; the Papp B→A at 90 min, 50 µM was determined as 1.65 ± 0.95 ×10⁻⁶ cm/s; the Papp at 90 min, 50 µM is around 1 ×10⁻⁶ cm/s. Besides, the recovery in series [4] (read-out: Total recovery AP→BL) was 97.04 ± 0.36%. Besides, in series [4] (read-out: Total recovery BL→AP), the recovery worked out at 91.6 ± 1.27%.

`CC(C)NCC(O)COc1cccc2ccccc12` (stereo not shown) [propranolol, reference compound]: the Papp in series [3] (Caco-2, read-out: Papp of transport markers) stood at 25.1 ×10⁻⁶ cm/s.
